Data published in ChEMBL document CHEMBL2074413, “Effect of cisplatin-induced acute renal failure on bioavailability and intestinal secretion of quinolone antibacterial drugs in rats” (Pharm Res, 2004).

Key:
Type in all cases: functional, cell-based
[1] = target: T1, ATP-dependent translocase ABCB1 (Homo sapiens, UniProt P08183); experiment: TP_TRANSPORTER: transepithelial transport (basal to apical) of Ciprofloxacin at 2uM in LLC-GA5-COL150 cells; conditions: pig, llc-ga5-col150, 2 µM
[2] = target: T1, ATP-dependent translocase ABCB1; experiment: TP_TRANSPORTER: transepithelial transport (basal to apical) of Digoxin at a concentration of 58.8nM in LLC-GA5-COL150 cells; conditions: pig
[3] = target: T1, ATP-dependent translocase ABCB1; experiment: TP_TRANSPORTER: transepithelial transport (basal to apical) of Grepafloxacin at a concentration of 5uM in LLC-GA5-COL150 cells; conditions: pig, llc-ga5-col150, 5 µM
[4] = target: T1, ATP-dependent translocase ABCB1; experiment: TP_TRANSPORTER: transepithelial transport (basal to apical) of Levofloxacin at a concentration of 5uM in LLC-GA5-COL150 cells; conditions: pig, llc-ga5-col150, 5 µM

T1 sequence (P08183 whole entry): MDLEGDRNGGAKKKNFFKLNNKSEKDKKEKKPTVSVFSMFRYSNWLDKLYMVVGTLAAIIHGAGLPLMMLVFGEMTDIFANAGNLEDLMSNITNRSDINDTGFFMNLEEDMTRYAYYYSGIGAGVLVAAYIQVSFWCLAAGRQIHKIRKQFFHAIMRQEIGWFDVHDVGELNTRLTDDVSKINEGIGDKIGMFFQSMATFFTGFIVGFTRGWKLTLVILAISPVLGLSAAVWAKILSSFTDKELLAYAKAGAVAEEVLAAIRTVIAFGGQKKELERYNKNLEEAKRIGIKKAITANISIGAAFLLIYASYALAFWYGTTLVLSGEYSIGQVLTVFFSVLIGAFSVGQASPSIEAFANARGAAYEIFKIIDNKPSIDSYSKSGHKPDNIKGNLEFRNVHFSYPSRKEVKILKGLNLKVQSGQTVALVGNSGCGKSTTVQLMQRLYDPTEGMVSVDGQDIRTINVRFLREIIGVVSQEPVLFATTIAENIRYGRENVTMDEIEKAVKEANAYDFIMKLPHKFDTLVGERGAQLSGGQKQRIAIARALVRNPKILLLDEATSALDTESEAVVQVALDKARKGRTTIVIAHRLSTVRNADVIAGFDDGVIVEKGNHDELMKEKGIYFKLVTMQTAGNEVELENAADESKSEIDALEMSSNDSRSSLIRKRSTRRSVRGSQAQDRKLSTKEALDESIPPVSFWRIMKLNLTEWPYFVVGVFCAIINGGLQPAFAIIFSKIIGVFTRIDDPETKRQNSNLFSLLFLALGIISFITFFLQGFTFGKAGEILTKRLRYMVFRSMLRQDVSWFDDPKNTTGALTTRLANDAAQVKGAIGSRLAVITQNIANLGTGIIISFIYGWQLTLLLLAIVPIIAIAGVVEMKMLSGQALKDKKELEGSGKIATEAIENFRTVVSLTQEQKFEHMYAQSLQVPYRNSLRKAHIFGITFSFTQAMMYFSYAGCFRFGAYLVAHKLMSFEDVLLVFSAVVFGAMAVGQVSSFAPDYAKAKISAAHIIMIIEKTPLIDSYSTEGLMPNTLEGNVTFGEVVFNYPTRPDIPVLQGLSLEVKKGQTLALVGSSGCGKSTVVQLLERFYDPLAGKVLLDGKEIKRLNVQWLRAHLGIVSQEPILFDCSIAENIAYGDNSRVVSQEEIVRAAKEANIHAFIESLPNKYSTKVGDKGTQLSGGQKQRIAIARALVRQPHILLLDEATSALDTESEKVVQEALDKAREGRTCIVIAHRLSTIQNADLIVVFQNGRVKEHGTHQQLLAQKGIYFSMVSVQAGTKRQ

Compound: O=C(O)c1cn(C2CC2)c2cc(N3CCNCC3)c(F)cc2c1=O [CIPROFLOXACIN]
- Activity [1]: is not a substrate [-]

Compound: C[C@H]1O[C@@H](O[C@H]2[C@@H](O)C[C@H](O[C@H]3[C@@H](O)C[C@H](O[C@H]4CC[C@@]5(C)[C@H](CC[C@@H]6[C@@H]5C[C@@H](O)[C@]5(C)[C@@H](C7=CC(=O)OC7)CC[C@]65O)C4)O[C@@H]3C)O[C@@H]2C)C[C@H](O)[C@@H]1O [DIGOXIN]
- Activity [2]: substrate [+]

Compound: Cc1c(F)c(N2CCNC(C)C2)cc2c1c(=O)c(C(=O)O)cn2C1CC1 (centres undefined) [GREPAFLOXACIN]
- Activity [3]: substrate [+]

Compound: C[C@H]1COc2c(N3CCN(C)CC3)c(F)cc3c(=O)c(C(=O)O)cn1c23.C[C@H]1COc2c(N3CCN(C)CC3)c(F)cc3c(=O)c(C(=O)O)cn1c23.O [LEVOFLOXACIN]
- Activity [4]: substrate [+]
